Results from publication PMC8162069 (Chemical Science, 2020).

Target: HepG (Trichoderma virens, UniProt G9NDK9)
Assay: X-ray crystal structure
Assay type: binding
Settings: active site of each subunit

Chain of HepG (G9NDK9 1-336): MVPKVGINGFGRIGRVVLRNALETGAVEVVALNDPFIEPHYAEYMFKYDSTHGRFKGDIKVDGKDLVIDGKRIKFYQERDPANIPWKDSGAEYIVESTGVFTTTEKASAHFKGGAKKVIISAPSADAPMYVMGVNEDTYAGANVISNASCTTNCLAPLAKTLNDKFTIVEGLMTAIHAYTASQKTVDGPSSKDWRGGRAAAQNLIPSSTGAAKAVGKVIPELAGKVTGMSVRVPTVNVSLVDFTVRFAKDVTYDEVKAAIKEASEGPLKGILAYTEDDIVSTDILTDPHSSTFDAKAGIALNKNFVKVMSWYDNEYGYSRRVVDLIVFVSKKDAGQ

NC(=O)c1ccc[n+]([C@@H]2O[C@H](COP(=O)(O)OP(=O)(O)OC[C@H]3O[C@@H](n4cnc5c(N)ncnc54)[C@H](O)[C@@H]3O)[C@@H](O)[C@H]2O)c1 [NAD^+]
X-ray crystal structure: Each subunit of the tetrameric HepG contains a NAD^+ cofactor
